Measurements published in patent US12246026B2, “Ganaxolone for use in treatment of status epilepticus” (Marinus Pharmaceuticals, Inc., priority 2019, dated 2025).
Entries after “also recorded” stand apart in the source; their conditions may differ.

Tests used:
[1] = Human PK in subjects taking strong CYP inducers; type: in vivo; settings: subjects taking strong CYP inducers (carbamazepine and phenytoin)
[2] = Safety in the ganaxolone clinical development program; type: in vivo, human
Excerpt: In the completed placebo-controlled Phase 1, 2, and 3 studies, 0.32% of subjects who received ganaxolone and 0.46% of subjects who received placebo developed elevated LFTs during the study (>3×ULN AST and/or ALT). A subject participating in the ganaxolone paediatric epilepsy study developed liver failure, which was not considered to be related to ganaxolone. The subject was diagnosed with short bowel syndrome, liver steatosis and IgG-cholangitis, which were considered to be the causal factors for the subject's liver failure. There have been no other cases of Hy's Law or liver failure in the ganaxolone development program. […] After cessation of the dosing, plasma ganaxolone levels are expected to drop rapidly, but it is possible that low sub-therapeutic levels persist for several days as ganaxolone is slowly released from tissues.
Ganaxolone has been administered to infants with severe forms of epilepsy as early as 4 months of age. In clinical trials involving administration of ganaxolone over several weeks, the study drug has been tapered off over a 1 to 2-week period.

healthy subjects = assay: Phase 1 IV ganaxolone pharmacodynamics (BIS, EEG) in healthy subjects; type: in vivo, human
Experimental: A Phase I clinical trial evaluating IV ganaxolone formulation was performed. The clinical trial was designed to investigate the safety, pharmacokinetics, and pharmacodynamics of an intravenous bolus of ganaxolone and continuous intravenous infusion of ganaxolone in 30 healthy subjects. Subjects were administered either an intravenous bolus of ganaxolone in an amount of 10-20 mg for a period of 2 minutes to 1 hour, or an intravenous bolus of ganaxolone in an amount of 6 mg for a period of 5 minutes with a continuous intravenous infusion in an amount of 20 mg/hr for a period of 4 hours.
There was little or no delay between the appearance of drug in plasma and a change in the BIS score.

[3] = Phase 2 Study 1042-SE-2001 open-label group, safety; type: in vivo, human
Experimental: As of 22 Mar. 2019, 5 subjects were enrolled into the Study 1042-SE-2001 open-label group under the original protocol that limits daily Captisol exposure at 35 g/day. […] The initial EEG pattern post-infusion initiation was described by study physicians as a “light” burst suppression that was maintained for several hours in all subjects. […] It was observed that when GNX exposure was lowered (20 mg/hr for 2 hours and ending with 10 mg/hr for the remaining 18 hours on Day 1) in order not to exceed this limit, seizure control could not be maintained and seizure activity (but not SE) re-occurred as evidenced by EEG changes. […] Seizure activity relapsed when plasma concentrations of GNX decreased <500 ng/mL in 4 out of 5 subjects.
Subject 015-101 was a person who presented with focal convulsive SE due to a tumor (Day 1). Recent medical history included convulsive seizures, SE, and Glioblastoma multiform of parietal lobe. Subject was administered levetiracetam for SE and lorazepam, diazepam, dexamethasone, and multiple doses of levetiracetam for seizure control prior to study enrollment. On Day 3, the subject was enrolled in the study and started on IV GNX 30 mg bolus dose plus continuous infusion (85 mg/hr). At the start of dose initiation the subject was alert. […] They were arousable to voice but required continuous stimulation to stay awake or follow commands. They maintained their airway and was able to endorse that the numbness had resolved and reported that they no longer felt twitches. […] The subject had significant direction-changing nystagmus and complained of blurry vision. […] During the next 2 hours the subject remained somnolent and was becoming increasingly restless. As per the protocol, GNX was decreased to 40 mg/hr at 2 hours post dose initiation. Approximately 10 to 15 minutes after the infusion rate was decreased to 40 mg/hr, the subject's arousal improved, they became conversational, and wanted to eat. They had no seizures at this time. Vital signs remained stable. During the GNX infusion, concomitant lacosamide was increased due to increased numbness. […] Once the GNX taper was completed the investigator reported there were no sequelae.
Under the protocol amended with the 50 g/day Captisol limit, 1 subject was enrolled in the open-label study as of 26 Mar. 2019. The subject presented with NCSE due to a tumor. The subject failed 3 second-line IV AEDs and qualified for the study based on the study's inclusion/exclusion criteria. Within 3 minutes after starting the IV GNX infusion, the RSE ceased and seizure protection was maintained for the remaining 48 hours of GNX treatment. […] Pharmacokinetic data were unavailable at the time of this report.

CYP3A4/5 = assay: Metabolism by CYP enzymes; settings: human

CC(=O)[C@H]1CC[C@H]2[C@@H]3CC[C@H]4C[C@](C)(O)CC[C@]4(C)[C@H]3CC[C@]12C [Ganaxolone, 3α-hydroxy-3β-methyl-5α-pregnan-20-one]
lowering in overall ganaxolone levels and exposure [1]: ~45% | withdrawal symptoms after cessation ([2]; clinical trials, tapered off over 1 to 2 weeks): no reports of withdrawal symptoms | subjects who developed elevated LFTs (>3×ULN AST and/or ALT) ([2]; completed placebo-controlled Phase 1, 2 and 3 studies): 0.32% | trends in ECG intervals, vital signs, physical or neurological examinations ([2]; development program overall): no clinically significant trends | excretion to breast milk ([2]; ganaxolone and its metabolites): excreted to breast milk | EEG and BIS changes (healthy subjects; Phase 1, FIG. 1): consistent with sedative/anesthetic effects | bispectral index (BIS) score versus plasma concentration (healthy subjects; healthy subjects, IV): higher plasma concentration was associated with lower BIS scores | safety finding related to GNX ([3]; 1 subject, amended protocol, concomitant AEDs): increased sedation | GNX-related cardiovascular events requiring pharmacological intervention ([3]; 5 subjects): no GNX-related cardiovascular events that required pharmacological intervention were observed | intubation as a direct result of GNX therapy ([3]; 5 subjects): no subjects had to be intubated as a direct result of GNX therapy | adverse observations during infusion ([3]; Subject 015-101, 30 mg bolus, 85 mg/hr, listed as GNX): significant somnolence; also recorded: urinary retention with urgency | metabolizing enzymes (CYP3A4/5): metabolized by CYP3A4/5
